Source: US6172104A, “Dicationic dibenzofuran and dibenzothiophene compounds and methods of use thereof” (priority 1999, dated 2001)
Structures can show the parent of a compound that is named as a salt.

Experiments:
Pneumocystis carinii [1] = test: Activity against Pneumocystis carinii pneumonia (PCP) in the rat model, dibenzofuran dications (Example 2, Table 2); assay type: in vivo; details: for response vs control in vivo at 10 µmol/kg / response vs control in vivo at 22 µmol/kg / response vs control in vivo at 33 µmol/kg: Pneumocystis carinii, 336 h, read-out: Pneumocystis carinii % Saline control ± std error; for response vs control in vivo at 10 µmol/kg / response vs control in vivo at 22 µmol/kg: iv; for response vs control in vivo at 33 µmol/kg: 33.0 μmol/kg/day by oral gavage
Source text: Compounds 1-3 and 5-7 in the initial screen were given once daily by tail vein injection at a dose of 10 μmol/kg/day for 14 days, with activities compared to pentamidine at approximately one-half the effective iv dose of pentamidine, which is 22 μmol/kg/day.
Compounds 4 and 8 were synthesized to test if diamidoximes would be effective prodrugs of the dibenzofuran diamidines. Both the diamidoximes were screened for anti-P. carinii activity at 10 μmol/kg/day by tail vein injection and 33 μmol/kg/day by oral gavage for 14 days. […] Further studies of diamidoxime metabolism are being performed using cultured cell lines and cell-free enzyme preparations to understand more about the metabolic mechanisms of prodrug activation.
^a Dose units were μmol/kg/day. Each compound was administered to 8
rats once daily for 14 days. Doses marked with (*) were by oral gavage,
all others were i.v. via tail vein.
^c Cysts/g lung counts for the saline and pentamidine control groups
were pooled across experiments. Scores for each compound were reported as
% of the pooled saline scores. Saline: 47.53 × 10^6 cysts/g lung
(n = 45). Petamidine: 0.38 × 10^6 cysts/g lung (n = 42).

Pneumocystis carinii [2] = test: animal or person; assay type: in vivo, Pneumocystis carinii; rat; details: for response vs control in vivo at 10 µmol/kg: 10.0 μmol/kg/day iv via tail vein, rats (4 rats for 3, 4, 9)
Source text: The activity is expressed as the percent of cysts counted in treated groups as compared to untreated controls. All of the compounds in the initial screen were given by tail vein injection at a dose of 10 μmol/kg/day for 14 days. The test compounds were compared for efficacy with the standard anti-PCP compound, pentamidine, at one-half the dose of pentamidine. […] Among the 2,8-substituted derivatives, the diamidine 1 and the bis-N-isopropylamidine 2 were very potent. A dose response study was performed upon compound 2.
^c Expressed as μmol/kg/day, given iv via tail vain to at least 8
rats once daily for 14 days, unless stated otherwise.
^e Cysts/g lung counts were 69.18 (× 10^6) for the saline
control group and 0.51 (× 10^6) for the pentamidine group. These
scores were pooled across experiments involving compounds 1-9. Saline: n =
55; pentamidine: n = 52.
^g Doses given to 4 rats.
^h Doses given by oral gavage.

whole cells = test: Conversion of diamidoxime to diamidine by whole cells (Example 2); assay type: in vitro ADME; details: preliminary results
Pneumocystis carinii [3] = details: rat, in vivo; cited from earlier work
[4] = Pneumocystis carinii, in Rattus norvegicus, iv, 336 h, once daily 14 days, read-out: Pneumocystis carinii % Saline control ± std error
[5] = 10.0 μmol/kg/day i.v. via tail vein, once daily 14 days, 8 rats

`N=C(N)c1ccc2oc3ccc(C(=N)N)cc3c2c1` [Compound 1 (Example 2), 2,8-Diamidinodibenzofuran dihydrochloride] showed a response vs control in vivo at 10 µmol/kg (Pneumocystis carinii [1]) of 7.15 ± 3.81% and a response vs control in vivo at 22 µmol/kg (Pneumocystis carinii [1]) of 0.1 ± 0.02%.

With `N=C(N)c1ccc2sc3ccc(C(=N)N)cc3c2c1` [Compound 1] the response vs control in vivo at 10 µmol/kg (Pneumocystis carinii [2]; [4]) was 0.1 ± 0.03%.

For `c1cc2oc3ccc(C4=NCCN4)cc3c2cc1C1=NCCN1` [Compound 2 (Example 2), 2,8-Di(2-imidazolinyl)dibenzofuran dihydrochloride], the response vs control in vivo at 10 µmol/kg (Pneumocystis carinii [1]; [5]) was 97.4 ± 31.9%.

For `CC(C)NC(=N)c1ccc2sc3ccc(C(=N)NC(C)C)cc3c2c1` [Compound 2], the response vs control in vivo at 0.1 µmol/kg (Pneumocystis carinii [2]; Pneumocystis carinii, in Rattus norvegicus, iv, 336 h, 0.1 μmol/kg/day iv, once daily 14 days, rats, read-out: Pneumocystis carinii % Saline control ± std error) was 94.8 ± 28.3%, the response vs control in vivo at 1 µmol/kg (Pneumocystis carinii [2]; Pneumocystis carinii, in Rattus norvegicus, iv, 336 h, 1.0 μmol/kg/day iv, once daily 14 days, rats, read-out: Pneumocystis carinii % Saline control ± std error) was 12.8 ± 4.02% and the response vs control in vivo at 2.5 µmol/kg (Pneumocystis carinii [2]; Pneumocystis carinii, in Rattus norvegicus, iv, 336 h, 2.5 μmol/kg/day iv, once daily 14 days, rats, read-out: Pneumocystis carinii % Saline control ± std error) was 0.19 ± 0.1%. The response vs control in vivo at 5 µmol/kg (Pneumocystis carinii [2]; Pneumocystis carinii, in Rattus norvegicus, iv, 336 h, 5.0 μmol/kg/day iv, once daily 14 days, rats, read-out: Pneumocystis carinii % Saline control ± std error) was 0.04 ± 0.01% and the response vs control in vivo at 10 µmol/kg (Pneumocystis carinii [2]; [4]) was 0.01 ± 0.01%.

With `CC(C)NC(=N)c1ccc2oc3ccc(C(=N)NC(C)C)cc3c2c1` [Compound 3 (Example 2), 2,8-Di(N-isopropylamidino)dibenzofuran dihydrochloride] the response vs control in vivo at 10 µmol/kg (Pneumocystis carinii [1]; [5]) was 0.5 ± 0.27%.

Work on `NC(=NO)c1ccc2sc3ccc(C(N)=NO)cc3c2c1` [Compound 3] yielded a response vs control in vivo at 10 µmol/kg (Pneumocystis carinii [2]; [4]) of 1.3 ± 0.84%.

In the case of `Cl.Cl.N=C(NO)c1ccc2oc3ccc(C(=N)NO)cc3c2c1` [Compound 4 (Example 2), 2,8-Di(N-hydroxylamidino)dibenzofuran dihydrochloride], the response vs control in vivo at 33 µmol/kg (Pneumocystis carinii [1]; once daily 14 days, 8 rats) is reported as 45.1 ± 21.6%, the response vs control in vivo at 10 µmol/kg (Pneumocystis carinii [1]; [5]) is reported as 15.8 ± 14.6% and the “conversion of diamidoxime to diamidine (in words)” value (whole cells) is reported as “less efficient than conversion of pentamidoxime to pentamidine by whole cells”.

Compound `N=C(N)c1ccc2c(c1)oc1cc(C(=N)N)ccc12` [Compound 5 (Example 2), 3,7-Diamidinodibenzofuran dihydrochloride] has a response vs control in vivo at 10 µmol/kg (Pneumocystis carinii [1]; [5]) of 183 ± 38.3%.

With `c1cc2sc3ccc(C4=NCCN4)cc3c2cc1C1=NCCN1` [Compound 5] the response vs control in vivo at 10 µmol/kg (Pneumocystis carinii [2]; [4]) was 28 ± 12.7%.

With `c1cc2c(cc1C1=NCCN1)oc1cc(C3=NCCN3)ccc12` [Compound 6 (Example 2), 3,7-Di(2-imidazolinyl)dibenzofuran dihydrochloride] the response vs control in vivo at 10 µmol/kg (Pneumocystis carinii [1]; [5]) was 220 ± 39.3%.

In the case of `O=S1(=O)c2ccc(C3=NCCN3)cc2-c2cc(C3=NCCN3)ccc21` [Compound 6], the response vs control in vivo at 10 µmol/kg (Pneumocystis carinii [2]; [4]) is reported as 93.5 ± 9.58%.

Work on `CC(C)NC(=N)c1ccc2c(c1)oc1cc(C(=N)NC(C)C)ccc12` [Compound 7 (Example 2), 3,7-Di(isopropylamidino)dibenzofuran dihydrochloride] yielded a response vs control in vivo at 10 µmol/kg (Pneumocystis carinii [1]; [5]) of 0.28 ± 0.27%.

Work on `N=C(N)c1ccc2c(c1)sc1cc(C(=N)N)ccc12` [Compound 7] yielded a response vs control in vivo at 10 µmol/kg (Pneumocystis carinii [2]; [4]) of 36 ± 9.59%.

Compound `NC(=NO)c1ccc2c(c1)oc1cc(C(N)=NO)ccc12` [Compound 8 (Example 2), 3,7-Di(A-hydroxylamidino)dibenzofuran dihydrochloride] has a response vs control in vivo at 33 µmol/kg (Pneumocystis carinii [1]; once daily 14 days, 8 rats) of 150 ± 54% and a response vs control in vivo at 10 µmol/kg (Pneumocystis carinii [1]; [5]) of 166 ± 109%.

For `CC(C)NC(=N)c1ccc2c(c1)sc1cc(C(=N)NC(C)C)ccc12` [Compound 8], the response vs control in vivo at 10 µmol/kg (Pneumocystis carinii [2]; [4]) was 0.04 ± 0.02%.

In the case of `Cl.Cl.N=C(NO)c1ccc2c(c1)sc1cc(C(=N)NO)ccc12` [Compound 9 (Example 1), 3,7-Bis(N-hydroxyamidino)dibenzothiophene dihydrochloride], the response vs control in vivo at 10 µmol/kg (Pneumocystis carinii [2]; [4]) is reported as 112 ± 76.5%, the response vs control in vivo at 33 µmol/kg (Pneumocystis carinii [2]; Pneumocystis carinii, in Rattus norvegicus, po, 336 h, 33.0 μmol/kg/day by oral gavage, once daily 14 days, 4 rats, read-out: Pneumocystis carinii % Saline control ± std error) is reported as 45.6 ± 26.1% and the “anti-PCP activity by both routes (in words)” value (Pneumocystis carinii [2]; intravenous and oral administration) is reported as “inactive by both intravenous and oral administration”.

In the case of `N=C(N)c1ccc(OCCCCCOc2ccc(C(=N)N)cc2)cc1` [Pentamidine, reference compound], the response vs control in vivo at 22 µmol/kg (Pneumocystis carinii [1]) is reported as 0.8 ± 0.17%, the Cysts/g lung counts (Pneumocystis carinii [1]; pentamidine control group pooled across experiments, n = 42) is reported as 0.38 × 10^6 cysts/g lung and the response vs control in vivo at 22 µmol/kg (Pneumocystis carinii [2]; Pneumocystis carinii, in Rattus norvegicus, iv, 336 h, read-out: Pneumocystis carinii % Saline control ± std error) is reported as 0.74 ± 0.12%. The Cysts/g lung counts (Pneumocystis carinii [2]; pentamidine group pooled across experiments, n = 52, 22.0 μmol/kg/day iv) was 0.51 × 10^6 cysts/g lung.

For `N/C(=N\O)c1ccc(OCCCCCOc2ccc(/C(N)=N/O)cc2)cc1` [Pentamidoxime, reference compound], the response vs control in vivo at 33 µmol/kg (Pneumocystis carinii [1]; once daily 14 days, 8 rats) is listed as 13.8 ± 9.12%, the response vs control in vivo at 22 µmol/kg (Pneumocystis carinii [1]; 22.0 μmol/kg/day i.v. via tail vein, once daily 14 days, 8 rats) is listed as 0.11 ± 0.02% and the “prodrug behaviour (in words)” value (Pneumocystis carinii [3]) is listed as “an effective prodrug”.
